For test [1], the target named is T1, GLS1 (purified recombinant human GAC) (Homo sapiens, UniProt O94925).
T1 sequence (O94925 55-598 isoform O94925-3 limits assumed): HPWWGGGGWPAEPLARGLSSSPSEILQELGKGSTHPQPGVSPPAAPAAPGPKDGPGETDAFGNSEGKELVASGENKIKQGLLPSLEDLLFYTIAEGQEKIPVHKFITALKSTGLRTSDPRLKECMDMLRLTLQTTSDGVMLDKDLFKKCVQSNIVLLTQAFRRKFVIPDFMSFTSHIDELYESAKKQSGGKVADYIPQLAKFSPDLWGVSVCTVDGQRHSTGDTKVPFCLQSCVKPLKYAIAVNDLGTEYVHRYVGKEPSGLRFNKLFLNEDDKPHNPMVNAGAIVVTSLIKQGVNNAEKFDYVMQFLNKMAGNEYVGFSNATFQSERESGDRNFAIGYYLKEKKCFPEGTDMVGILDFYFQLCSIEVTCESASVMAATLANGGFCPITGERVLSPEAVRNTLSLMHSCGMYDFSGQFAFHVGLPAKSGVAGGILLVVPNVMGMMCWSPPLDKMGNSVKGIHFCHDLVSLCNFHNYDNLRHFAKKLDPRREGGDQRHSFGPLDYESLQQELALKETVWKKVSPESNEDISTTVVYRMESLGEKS
The experiment in a line: GLS1 enzymatic activity assay (dual-coupled, Amplex UltraRed/resorufin). The class given is biochemical. The method in brief:
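In this coupled fluorometric format, phosphate-activated GAC (2 nM, 50 mM phosphate) is pre-exposed to compound for 10 min before 1 mM glutamine addition. Product is tracked as resorufin (530/590 nm) over time or at 20 min, and potency is derived by logistic fitting.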

In a further test the test system is A549 cells. The experiment in a line: A549 proliferation (viability) assay, Cell Titer Fluor, 72 hours. The class given is cell-based. The conditions noted are these: Homo sapiens. The gist of the method: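 Seed A549 at 1000 cells/well and culture 24 h. Add compound (final DMSO 0.5%) and incubate 72 h at 37 °C. Add Cell Titer Fluor, mix 15 min, incubate 30 min, read fluorescence and fit EC50 by four-parameter logistic.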

Consider `O=C(CC1CCC1)Nc1ccn(CCC(F)Cn2cc(C(=O)NCc3cc(Cl)ccc3F)nn2)c(=O)c1` (stereo not shown) [Example 214, N-[(5-chloro-2-fluorophenyl)methyl]-1-{4-[4-(2-cyclobutylacetamido)-2-oxo-1,2-dihydropyridin-1-yl]-2-fluorobutyl}-1H-1,2,3-triazole-4-carboxamide], for which the half-inhibitory concentration (IC50) in test [1] is below 100 nM. The EC50 in the test on A549 cells fell in the range of 100 to 500 nM.
Consider `O=C(NCc1cccc(OC(F)(F)F)c1)c1cn(CC(F)CCn2ccc(NC(=O)[C@@H](O)c3ccccc3)c(F)c2=O)nn1` (stereo partly drawn) [Example 286, 1-(2-fluoro-4-{3-fluoro-4-[(2S)-2-hydroxy-2-phenylacetamido]-2-oxo-1,2-dihydropyridin-1-yl}butyl)-N-{[3-(trifluoromethoxy)phenyl]methyl}-1H-1,2,3-triazole-4-carboxamide], for which the IC50 in test [1] was below 100 nM. Besides, the concentration giving a half-maximal response (EC50) with A549 cells was below 100 nM.
As for `O=C(Cc1cccc(OC(F)(F)F)c1)Nc1ccn(CCCCn2cc(C(=O)NCc3cccc(OC(F)(F)F)c3)nn2)c(=O)c1` [Example 52, 1-[4-(2-oxo-4-{2-[3-(trifluoromethoxy)phenyl]acetamido}-1,2-dihydropyridin-1-yl)butyl]-N-{[3-(trifluoromethoxy)phenyl]methyl}-1H-1,2,3-triazole-4-carboxamide], the concentration for half-maximal inhibition (IC50) in test [1] is below 100 nM. The same compound had an EC50 in the test with A549 cells of 100 to 500 nM.
Regarding `CNC(=O)Nc1nnc(CCCCn2ccc(NC(=O)CC3CCCC3)c(F)c2=O)s1` [Example 132, 2-cyclopentyl-N-(3-fluoro-1-(4-(5-(3-methylureido)-1,3,4-thiadiazol-2-yl)butyl)-2-oxo-1,2-dihydropyridin-4-yl)acetamide], in test [1], the IC50 fell in the range of 100 to 500 nM. The same compound gave an EC50 with A549 cells above 5000 nM.
`O=C(CC1CCCC1)Nc1ccn(CCC(F)Cn2cc(C(=O)NCc3ncccc3F)nn2)c(=O)c1F` (stereo not shown) [Example 387, 1-{4-[4-(2-cyclopentylacetamido)-3-fluoro-2-oxo-1,2-dihydropyridin-1-yl]-2-fluorobutyl}-N-[(3-fluoropyridin-2-yl)methyl]-1H-1,2,3-triazole-4-carboxamide]: the IC50 in test [1] was below 100 nM. In addition, in the test with A549 cells, the 50% effective concentration (EC50) is below 100 nM.
For the compound `O=C(Cc1ccccc1)Nc1nnc(CCCCn2ccc(NC(=O)CC3CCCC3)c(F)c2=O)s1` [Example 502, 2-cyclopentyl-N-(3-fluoro-2-oxo-1-{4-[5-(2-phenylacetamido)-1,3,4-thiadiazol-2-yl]butyl}-1,2-dihydropyridin-4-yl)acetamide], the half-inhibitory concentration (IC50) in test [1] is below 100 nM. The compound further returned a half-maximal effective concentration (EC50) in the test on A549 cells of 100 to 500 nM.
Consider `C[C@H]1CCN(C(=O)C(=O)Nc2ccn(CCC(F)Cn3cc(C(=O)NCc4cc(OC(F)(F)F)ccc4F)nn3)c(=O)c2F)C1` (stereo partly drawn) [Example 432, 1-[2-fluoro-4-(3-fluoro-4-{2-[(3S)-3-methylpyrrolidin-1-yl]-2-oxoacetamido}-2-oxo-1,2-dihydropyridin-1-yl)butyl]-N-{[2-fluoro-5-(trifluoromethoxy)phenyl]methyl}-1H-1,2,3-triazole-4-carboxamide], for which the IC50 in test [1] is below 100 nM. Moreover, in the test on A549 cells, the concentration giving a half-maximal response (EC50) is below 100 nM.
In the case of `CCOC(=O)N1CCN(CC(=O)Nc2ccn(CCC(F)Cn3cc(C(=O)NCc4cccc(OC(F)(F)F)c4)nn3)c(=O)c2F)CC1` (stereo not shown) [Example 292, ethyl 4-{[(3-fluoro-1-{3-fluoro-4-[4-({[3-(trifluoro-methoxy)phenyl]methyl}carbamoyl)-1H-1,2,3-triazol-1-yl]butyl}-2-oxo-1,2-dihydropyridin-4-yl)carbamoyl]methyl}piperazine-1-carboxylate], the half-maximal inhibitory concentration (IC50) in test [1] is below 100 nM. The compound further gave a half-maximal effective concentration (EC50) in the test with A549 cells below 100 nM.
`CC(C)COC(=O)Nc1ccn(CCC(F)Cn2cc(C(=O)NCc3cccc(OC(F)(F)F)c3)nn2)c(=O)n1` (stereo not shown) [Example 471, 2-methylpropyl N-(1-{3-fluoro-4-[4-({[3-(trifluoro-methoxy)phenyl]methyl}carbamoyl)-1H-1,2,3-triazol-1-yl]butyl}-2-oxo-1,2-dihydropyrimidin-4-yl)carbamate]: the half-inhibitory concentration (IC50) in test [1] is below 100 nM. Further, in the test on A549 cells, the EC50 was below 100 nM.
Consider `O=C(Cc1c(F)cccc1F)Nc1ccn(CCC(F)Cn2cc(C(=O)NCc3cccc(OC(F)(F)F)c3)nn2)c(=O)c1F` (stereo not drawn) [Example 335, l-(4-{4-[2-(2,6-difluorophenyl)acetamido]-3-fluoro-2-oxo-1,2-dihydropyridin-1-yl}-2-fluorobutyl)-N-{[3-(trifluoromethoxy)phenyl]methyl}-1H-1,2,3-triazole-4-carboxamide], for which the IC50 in test [1] was below 100 nM. The 50% effective concentration (EC50) with A549 cells lay in the range of 100 to 500 nM.
For `CO[C@H](C(=O)Nc1ccn(CCC(F)Cn2cc(C(=O)NCc3ccc(C)nc3)nn2)c(=O)c1F)c1ccccc1` (stereo partly drawn) [Example 312, 1-(2-fluoro-4-{3-fluoro-4-[(2S)-2-methoxy-2-phenylacetamido]-2-oxo-1,2-dihydropyridin-1-yl}butyl)-N-[(6-methylpyridin-3-yl)methyl]-1H-1,2,3-triazole-4-carboxamide], in test [1], the half-inhibitory concentration (IC50) is below 100 nM. Further, the EC50 with A549 cells is 100 to 500 nM.
Regarding `O=C(CC1CCC1)Nc1ccn(CCCCc2nnc(C(=O)NCc3cc(C(F)(F)F)ccn3)s2)c(=O)c1F` [Example 465, 5-{4-[4-(2-cyclobutylacetamido)-3-fluoro-2-oxo-1,2-dihydropyridin-1-yl]butyl}-N-{[4-(trifluoromethyl)pyridin-2-yl]methyl}-1,3,4-thiadiazole-2-carboxamide], the IC50 in test [1] is below 100 nM. In the test on A549 cells, this compound yielded a concentration for a half-maximal effect (EC50) below 100 nM.
Take `CS(=O)(=O)c1ccc(CNC(=O)c2cn(CCCCn3ccc(NC(=O)Cc4cccc(OC(F)(F)F)c4)cc3=O)nn2)cc1` [Example 68, N-[(4-methanesulfonylphenyl)methyl]-1-[4-(2-oxo-4-{2-[3-(trifluoromethoxy)phenyl]acetamido}-1,2-dihydropyridin-1-yl)butyl]-1H-1,2,3-triazole-4-carboxamide]: the IC50 in test [1] was below 100 nM. This compound also returned a half-maximal effective concentration (EC50) with A549 cells above 5000 nM.
As for `O=C(CC1CCCC1)Nc1ccn(CCC(F)Cn2cc(C(=O)NCc3ccc(C(F)(F)F)cn3)nn2)c(=O)c1F` (stereo not shown) [Example 394, 1-{4-[4-(2-cyclopentylacetamido)-3-fluoro-2-oxo-1,2-dihydropyridin-1-yl]-2-fluorobutyl}-N-{[5-(trifluoromethyl)pyridin-2-yl]methyl}-1H-1,2,3-triazole-4-carboxamide], the IC50 in test [1] was below 100 nM. The same compound came in with a half-maximal effective concentration (EC50) in the test on A549 cells below 100 nM.
`O=C(NCc1ccc(C(F)(F)F)nc1)c1cn(CC(F)CCn2ccc(NC(=O)C(F)c3ccccc3)c(F)c2=O)nn1` (stereo not drawn) [Example 372, l-{2-fluoro-4-[3-fluoro-4-(2-fluoro-2-phenylacetamido)-2-oxo-1,2-dihydropyridin-1-yl]butyl}-N-{[6-(trifluoromethyl)pyridin-3-yl]methyl}-1H-1,2,3-triazole-4-carboxamide]: in test [1], the IC50 was below 100 nM. Further, the concentration for a half-maximal effect (EC50) in the test with A549 cells lay within 100 to 500 nM.
For `CNC(=O)c1cn(CCCCn2ccc(NC(=O)Cc3cccc(OC(F)(F)F)c3)cc2=O)nn1` [Example 40, N-methyl-1-[4-(2-oxo-4-{2-[3-(trifluoromethoxy)phenyl]acetamido}-1,2-dihydropyridin-1-yl)butyl]-1H-1,2,3-triazole-4-carboxamide], the IC50 in test [1] is 100 to 500 nM. In the test on A549 cells, the half-maximal effective concentration (EC50) lay within 500 to 5000 nM.
Turning to `O=C(Cc1ccccc1)Nc1ccn(CCC(F)Cn2cc(C(=O)NCc3ncccc3F)nn2)c(=O)c1` (stereo not shown) [Example 151, 1-{2-fluoro-4-[2-oxo-4-(2-phenylacetamido)-1,2-dihydropyridin-1-yl]butyl}-N-[(3-fluoropyridin-2-yl)methyl]-1H-1,2,3-triazole-4-carboxamide], the IC50 in test [1] fell in the range of 100 to 500 nM. The same compound registered a concentration for a half-maximal effect (EC50) with A549 cells of 500 to 5000 nM.
Regarding `O=C(CC1CCCCC1)Nc1ccn(CCCCn2cc(C(=O)NCc3cc(C(F)(F)F)ccn3)nn2)c(=O)c1` [Example 194, 1-{4-[4-(2-cyclohexylacetamido)-2-oxo-1,2-dihydropyridin-1-yl]butyl}-N-{[4-(trifluoromethyl)pyridin-2-yl]methyl}-1H-1,2,3-triazole-4-carboxamide], the IC50 in test [1] is below 100 nM. The concentration for a half-maximal effect (EC50) in the test on A549 cells was below 100 nM.
As for `O=C(Nc1ccn(CCC(F)Cn2cc(C(=O)NCc3cc(C(F)(F)F)ccn3)nn2)c(=O)n1)OCc1ccccc1` (stereo not shown) [Example 488, benzyl N-(1-{3-fluoro-4-[4-({[4-(trifluoromethyl)pyridin-2-yl]methyl}carbamoyl)-1H-1,2,3-triazol-1-yl]butyl}-2-oxo-1,2-dihydropyrimidin-4-yl)carbamate], in test [1], the IC50 was below 100 nM. This compound had an EC50 in the test with A549 cells below 100 nM.
Consider `CCOC(=O)N1CCC(CC(=O)Nc2ccn(CCC(F)Cn3cc(C(=O)NCc4cc(C(F)(F)F)ccn4)nn3)c(=O)c2F)CC1` (stereo not shown) [Example 324, ethyl 4-{[(3-fluoro-1-{3-fluoro-4-[4-({[4-(trifluoromethyl)pyridin-2-yl]methyl}carbamoyl)-1H-1,2,3-triazol-1-yl]butyl}-2-oxo-1,2-dihydropyridin-4-yl)carbamoyl]methyl}piperidine-1-carboxylate], for which the IC50 in test [1] is below 100 nM. This compound also had an EC50 in the test on A549 cells below 100 nM.

The values above are taken from patent US20160002204A1 (Board of Regents, The University of Texas System, priority 2014, published 2016).
